pKi: −log10 of the molar value.

This test is described as follows: Displacement of [3H]-clonidine from bovine imidazoline receptor I-1. (In general: Loss of bound radioactivity is the signal in a displacement assay; it reports binding, not function.)
One may read the pKi as −log10 of the Ki, conventionally taken in molar units. A lower pKi goes with a large Ki. `COc1nc(C)nc(Cl)c1N=C1NCCN1` [(4-Chloro-6-methoxy-2-methyl-pyrimidin-5-yl)-imidazolidin-2-ylidene-amine] had a pKi of 7.25.
The same measure for `NC[C@H](O)c1ccc(O)c(O)c1` [4-[(1R)-2-amino-1-hydroxyethyl]benzene-1,2-diol]: less than 4.00.
The same measure for `CC(C)C1C2CCC(C2)C1N` (centres undefined) [3-Isopropyl-bicyclo[2.2.1]hept-2-ylamine]: 7.38; for `Clc1cccc(Cl)c1N=C1NCCN1` [2-(2,6-dichloroanilino)-2-imidazoline]: 8.05.

(Values after BindingDB's records for doi:10.1021/jm960012o (Allergan, 1996).)
